Data reported in US20140314882A1, “Synergistic Combination Therapy” (President and Fellows of Harvard College, priority 2009, published 2014).

System: S. cerevisiae cells (strain BY4741)
Assay: concentration matrix drug synergy test on S. cerevisiae growth (OD595 growth curves)

| SMILES | effect on yeast growth |
| --- | --- |
| C/C1=C/C(=O)O[C@@H]2C[C@@H](CC[C@H](C)/C=C\CC1)O[C@@](O)([C@@H]1CSC(=O)N1)C2 [latrunculin B] | only mildly reduced yeast growth |
| C=CC[C@@H]1/C=C(\C)C[C@H](C)C[C@H](OC)[C@H]2O[C@@](O)(C(=O)C(=O)N3CCCC[C@H]3C(=O)O[C@H](/C(C)=C/[C@@H]3CC[C@@H](O)[C@H](OC)C3)[C@H](C)[C@@H](O)CC1=O)[C@H](C)C[C@@H]2OC [tacrolimus] | only mildly reduced yeast growth |
